The results in this text go back to patent publication US4740233A, “Substituted 1,2,4-triazolo[1,5-a]-pyrimidine-2-sulfonamides and compositions and methods of controlling undesired vegetation and suppressing the nitrification of ammonium nitrogen in soil” (The Dow Chemical Company, priority 1986, dated 1988).

The test system of one assay is cotton. Description: Preemergent control of plant species. Format: in vivo, Gossypium spp. The settings on record: Gossypium hirsutum, pre-emergence, 336 h; 0.25 lb/acre; read-out: percent preemergent control. The procedure: (§1) The seeds of various species of plants were planted in beds of good agricultural soil in a greenhouse. A number of compositions of the present invention, generally in the nature of an aqueous emulsion, were applied at rates listed in the table so as to deposit a predetermined amount of active ingredients uniformly throughout the surface of the bed. Another seed bed was treated only with water to serve as a control. After treatment the seed beds were maintained for two weeks under greenhouse conditions conducive for good plant growth and watered as necessary. Control refers to the reduction in growth compared to the observed results of the same untreated species.

For the next assay, the system named is soybean. The assay can be described thus: Preemergent control of plant species. The following applies: Glycine max, pre-emergence, 336 h; 0.25 lb/acre; read-out: percent preemergent control. Type of assay: in vivo, Glycine max. The procedure:
as §1

The test system of another assay is sugar beet. The assay can be described thus: Preemergent control of plant species. Format: in vivo, Beta saccharifera. The settings on record: Beta vulgaris, pre-emergence, 336 h; 0.25 lb/acre; read-out: percent preemergent control. The procedure:
as §1

For the next assay, the system named is jimsonweed. Description: Preemergent control of plant species. Type of assay: in vivo, Datura stramonium. The following applies: Datura stramonium, pre-emergence, 336 h; 0.25 lb/acre; read-out: percent preemergent control. The procedure:
as §1

The test system of the next assay is annual morning glory. Description: Preemergent control of plant species. Type of assay: in vivo, Ipomoea spp. The following applies: Ipomoea, pre-emergence, 336 h; 0.25 lb/acre; read-out: percent preemergent control. The procedure: as §1
A further assay concerns velvetleaf. Description: Preemergent control of plant species. Format: in vivo, Abutilon theophrasti. The following applies: Abutilon theophrasti, pre-emergence, 336 h; 0.25 lb/acre; read-out: percent preemergent control. The procedure:
as §1

For the next assay, the system named is corn. Description: Preemergent control of plant species. Format: in vivo, Zea mays. The following applies: Zea mays, pre-emergence, 336 h; 0.25 lb/acre; read-out: percent preemergent control. The procedure:
as §1

Another assay deals with rice. Description: Preemergent control of plant species. Type of assay: in vivo, Oryza sativa. The following applies: Oryza sativa, pre-emergence, 336 h; 0.25 lb/acre; read-out: percent preemergent control. The procedure: as §1
The next assay has as its system sorghum. Description: Preemergent control of plant species. Format: in vivo, Sorghum vulgare. The following applies: Sorghum, pre-emergence, 336 h; 0.25 lb/acre; read-out: percent preemergent control. The procedure:
as §1

The next assay deals with wheat. The assay can be described thus: Preemergent control of plant species. Format: in vivo, Triticum aestivum. The following applies: Triticum aestivum, pre-emergence, 336 h; 0.25 lb/acre; read-out: percent preemergent control. The procedure: as §1
The subject of the next assay is barnyardgrass. Description: Preemergent control of plant species. Type of assay: in vivo, Echinochloa crusgalli. The settings on record: Echinochloa crus-galli, pre-emergence, 336 h; 0.25 lb/acre; read-out: percent preemergent control. The procedure: as §1
The next assay concerns johnson grass. Description: Preemergent control of plant species. Format: in vivo, Sorghum halepense. The settings on record: Sorghum halepense, pre-emergence, 336 h; 0.25 lb/acre; read-out: percent preemergent control. The procedure: as §1
In another assay the test system is yellow foxtail. The assay can be described thus: Preemergent control of plant species. The settings on record: Setaria, pre-emergence, 336 h; 0.25 lb/acre; read-out: percent preemergent control. Format: in vivo, Setaria lutescens. The procedure: as §1
In another assay the test system is yellow nutsedge. The assay can be described thus: Preemergent control of plant species. Format: in vivo, Cyperus esculentus. The settings on record: Cyperus, pre-emergence, 336 h; 0.25 lb/acre; read-out: percent preemergent control. The procedure:
as §1

The subject of a further assay is rape. The assay can be described thus: Preemergent control of plant species. Format: in vivo, Brassica napus. The following applies: Brassica napus, pre-emergence, 336 h; 0.25 lb/acre; read-out: percent preemergent control. The procedure:
as §1

Assay [1] has as its system nitrification of ammonium nitrogen. Description: Suppression of nitrification of ammonium nitrogen in soil. The following applies: 27° C. The method, boiled down:
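Value is % NH4-N remaining after a two-week, 27° C incubation of treated soil held at 1/3 bar tension moisture. Nitrate was measured with an ion-selective electrode after extraction with ammonium sulfate solution and 10 min shaking.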

For `O=S(=O)(Nc1c(Cl)cccc1Cl)c1nc2ncccn2n1` [Compound 137], the plant injury at 280.212 g/ha stood at 80% in the assay with cotton; 0% in the assay with soybean; 100% in the assay on sugar beet; 0% with corn; 50% in the assay on rice; 30% in the assay on sorghum. Moreover, the plant injury at 280.212 g/ha in the assay on wheat turned out to be 30%. The pest or weed control at 280.212 g/ha in the assay on jimsonweed was found to be 10%; in the assay on annual morning glory, 70%; with velvetleaf, 80%; in the assay with barnyardgrass, 20%; in the assay with johnson grass, 20%; in the assay with yellow foxtail, 20%. The pest or weed control at 280.212 g/ha in the assay on yellow nutsedge worked out at 100%.

As for `CSc1nc2nc(S(=O)(=O)Nc3c(Cl)cccc3Cl)nn2cc1C` [Compound 235], the plant injury at 280.212 g/ha in the assay on cotton is 50%; in the assay on soybean, 0%; in the assay on sugar beet it was 50%; in the assay with corn, 50%; with rice, 10%; in the assay with sorghum, 50%. Moreover, in the assay on wheat, the plant injury at 280.212 g/ha is 50%. Moreover, the pest or weed control at 280.212 g/ha in the assay with jimsonweed was 50%; in the assay with annual morning glory it was 90%; in the assay with velvetleaf, 20%; in the assay with johnson grass it was 0%; in the assay on yellow foxtail, 20%; with yellow nutsedge, 0%.

For the compound `Cc1cn2nc(S(=O)(=O)Nc3c(Cl)cccc3Cl)nc2nc1N(C)C` [Compound 237], the plant injury at 280.212 g/ha in the assay with cotton amounted to 50%; in the assay on soybean, 40%; in the assay on sugar beet, 50%; in the assay with corn, 20%; with rice, 20%; with sorghum, 20%. Moreover, in the assay on wheat, the plant injury at 280.212 g/ha is 100%. In addition, the pest or weed control at 280.212 g/ha in the assay with jimsonweed was 10%; in the assay with annual morning glory, 20%; in the assay on velvetleaf, 0%; in the assay with barnyardgrass, 10%; in the assay on johnson grass it was 10%; in the assay on yellow foxtail, 30%. In addition, the pest or weed control at 280.212 g/ha with yellow nutsedge was found to be 30%.

`COc1ccc(F)c(NS(=O)(=O)c2nc3nc(C)ccn3n2)c1F` [Compound 172]: the plant injury at 280.212 g/ha in the assay on cotton came to 100%; in the assay with soybean it was 90%; with sugar beet it was 100%; with corn, 80%; in the assay on rice, 100%; with sorghum it was 100%. Also, in the assay on wheat, the plant injury at 280.212 g/ha was 90%. Moreover, the pest or weed control at 280.212 g/ha with jimsonweed was 100%; with annual morning glory it was 90%; in the assay on velvetleaf, 100%; in the assay with barnyardgrass it was 100%; in the assay on johnson grass, 90%; in the assay with yellow foxtail it was 100%. For the same compound, in the assay with yellow nutsedge, the pest or weed control at 280.212 g/ha stood at 100%.

For `Cc1ccc(F)c(NS(=O)(=O)c2nc3nccc(C)n3n2)c1F` [Compound 190], the plant injury at 280.212 g/ha in the assay on cotton amounted to 90%; in the assay with soybean, 90%; in the assay on sugar beet it was 100%; in the assay on corn, 10%; in the assay with rice, 20%; in the assay with sorghum, 95%. In the assay on wheat, the plant injury at 280.212 g/ha was 20%. Moreover, the pest or weed control at 280.212 g/ha came to 90% in the assay with jimsonweed; 50% in the assay with annual morning glory; 50% in the assay with velvetleaf; 30% with barnyardgrass; 30% in the assay with johnson grass; 70% in the assay on yellow foxtail. Besides, the pest or weed control at 280.212 g/ha in the assay with yellow nutsedge worked out at 100%.

With `Cc1cc(C(F)(F)F)n2nc(S(=O)(=O)Nc3c(F)cccc3F)nc2n1` [Compound 228], the plant injury at 280.212 g/ha turned out to be 90% with cotton; 80% with rape; 20% in the assay on soybean; 100% in the assay with sugar beet; 50% in the assay with corn; 100% in the assay on sorghum. In the assay with wheat, the plant injury at 280.212 g/ha stood at 50%. Also, the pest or weed control at 280.212 g/ha with jimsonweed turned out to be 100%; in the assay with annual morning glory, 70%; in the assay with velvetleaf, 90%; in the assay with barnyardgrass, 90%; in the assay with johnson grass, 90%; with yellow foxtail, 50%. The pest or weed control at 280.212 g/ha in the assay with yellow nutsedge came to 50%.

In the case of `Cc1cc(C)n2nc(S(=O)(=O)Nc3ccccc3Oc3ncc(C(F)(F)F)cc3Cl)nc2n1` [Compound 99], the “% NH4-N Remaining After 2 Weeks Incubation” value in [1] (0.06 ppm) stood at 0%; in [1] (1 ppm) it was 0%; in [1] (4 ppm), 57%.

As for `Cc1nc2nc(S(=O)(=O)Nc3c(Cl)cccc3Cl)nn2c(C)c1Cl` [Compound 200], the “% NH4-N Remaining After 2 Weeks Incubation” value in assay [1] (0.06 ppm) is 0%; in assay [1] (0.25 ppm) it was 31%; in assay [1] (1 ppm) it was 50%; in assay [1] (4 ppm) it was 60%.

On to `Cc1cc(C)n2nc(S(=O)(=O)Nc3ccc(Cl)cc3Cl)nc2n1` [Compound 20], for which the “% NH4-N Remaining After 2 Weeks Incubation” value in assay [1] (0.06 ppm) was found to be 0%; in [1] (0.125 ppm), 0%; in assay [1] (0.25 ppm), 0%; in [1] (0.5 ppm), 5%; in assay [1] (1 ppm), 8%.

`COC(=O)c1sccc1NS(=O)(=O)c1nc2nc(C)cc(C)n2n1` [Compound 257]: the “% NH4-N Remaining After 2 Weeks Incubation” value in assay [1] (0.01 ppm) came to 0%; in [1] (0.1 ppm) it was 0%; in assay [1] (1 ppm) it was 0%; in assay [1] (10 ppm), 58%.

In the case of `Cc1cc(C)n2nc(S(=O)(=O)Nc3c(F)cccc3C(=O)O)nc2n1` [Compound 27], the “% NH4-N Remaining After 2 Weeks Incubation” value in assay [1] (0.01 ppm) amounted to 0%; in assay [1] (0.1 ppm) it was 0%; in assay [1] (1 ppm) it was 0%; in [1] (10 ppm), 35%.

With `Cc1cc(C)n2nc(S(=O)(=O)Nc3ncc(Cl)cc3Cl)nc2n1` [Compound 251], the “% NH4-N Remaining After 2 Weeks Incubation” value was 0% in [1] (0.01 ppm), 0% in assay [1] (0.1 ppm), 0% in [1] (1 ppm) and 29% in assay [1] (10 ppm).

Turning to `Cc1cc(C)n2nc(S(=O)(=O)Nc3ccc(F)cc3F)nc2n1` [Compound 29], the “% NH4-N Remaining After 2 Weeks Incubation” value in [1] (0.01 ppm) worked out at 0%; in assay [1] (0.1 ppm), 0%; in assay [1] (1 ppm), 1%; in [1] (10 ppm) it was 51%.

`CSc1cccc(C)c1NS(=O)(=O)c1nc2nc(C)ccn2n1` [Compound 150]: the “% NH4-N Remaining After 2 Weeks Incubation” value is reported as 83% in [1] (0.06 ppm), 74% in assay [1] (0.25 ppm), 91% in assay [1] (1 ppm) and 93% in assay [1] (4 ppm).
